Test results: patent US20250163068A1, “COMPOUNDS AND THEIR METHODS OF USE” (Praxis Precision Medicines, Inc., priority 2016, published 2025)
Where two headings read alike, the source gives them in different places. Values belong to the compound of their own block, whether it stands above or below them.

Key:
[1] = molecular target: CYP1A2 (Homo sapiens (Human), UniProt P05177); test: CYP1A2 inhibition in human liver microsomes; type: in vitro ADME
Procedure: The specific marker metabolites are measured with LC/MS/MS. The remaining enzymatic activities and inhibitory potency IC50 are determined. Microsomes are removed out of the −80° C. freezer to thaw on ice and 20 μL of the substrates solution added to the corresponding wells. […] Then 158 μL of the HLM working solution was added to all wells of the incubation plate. The plate was pre-warmed for about 10 min using a 37° C. water bath. Then 20 μL of the NADPH cofactor solution was added to all incubation wells, mixed and incubated for 10 minutes at 37° C. water bath. The reaction is terminated by adding 400 μL cold stop solution (200 ng/mL Tolbutamide and 200 ng/mL Labetalol in ACN). […] Finally 200 μL of the supernatant was transferred to 100 μL HPLC water, shaken for 10 min and analyzed by LC/MS/MS.

[2] = molecular target: human Nav1.6 (hNav1.6) (Homo sapiens (Human), UniProt Q9UQD0); test: Inhibition of late sodium current (INaL) at hNav1.6, PatchXpress electrophysiology; type: cell-based; conditions: 1 μM compound; HEK-293 cells expressing recombinant hNav1.6; late current evoked by 300 nM ATX-II
human Nav1.6 (hNav1.6), sequence (Q9UQD0 whole entry): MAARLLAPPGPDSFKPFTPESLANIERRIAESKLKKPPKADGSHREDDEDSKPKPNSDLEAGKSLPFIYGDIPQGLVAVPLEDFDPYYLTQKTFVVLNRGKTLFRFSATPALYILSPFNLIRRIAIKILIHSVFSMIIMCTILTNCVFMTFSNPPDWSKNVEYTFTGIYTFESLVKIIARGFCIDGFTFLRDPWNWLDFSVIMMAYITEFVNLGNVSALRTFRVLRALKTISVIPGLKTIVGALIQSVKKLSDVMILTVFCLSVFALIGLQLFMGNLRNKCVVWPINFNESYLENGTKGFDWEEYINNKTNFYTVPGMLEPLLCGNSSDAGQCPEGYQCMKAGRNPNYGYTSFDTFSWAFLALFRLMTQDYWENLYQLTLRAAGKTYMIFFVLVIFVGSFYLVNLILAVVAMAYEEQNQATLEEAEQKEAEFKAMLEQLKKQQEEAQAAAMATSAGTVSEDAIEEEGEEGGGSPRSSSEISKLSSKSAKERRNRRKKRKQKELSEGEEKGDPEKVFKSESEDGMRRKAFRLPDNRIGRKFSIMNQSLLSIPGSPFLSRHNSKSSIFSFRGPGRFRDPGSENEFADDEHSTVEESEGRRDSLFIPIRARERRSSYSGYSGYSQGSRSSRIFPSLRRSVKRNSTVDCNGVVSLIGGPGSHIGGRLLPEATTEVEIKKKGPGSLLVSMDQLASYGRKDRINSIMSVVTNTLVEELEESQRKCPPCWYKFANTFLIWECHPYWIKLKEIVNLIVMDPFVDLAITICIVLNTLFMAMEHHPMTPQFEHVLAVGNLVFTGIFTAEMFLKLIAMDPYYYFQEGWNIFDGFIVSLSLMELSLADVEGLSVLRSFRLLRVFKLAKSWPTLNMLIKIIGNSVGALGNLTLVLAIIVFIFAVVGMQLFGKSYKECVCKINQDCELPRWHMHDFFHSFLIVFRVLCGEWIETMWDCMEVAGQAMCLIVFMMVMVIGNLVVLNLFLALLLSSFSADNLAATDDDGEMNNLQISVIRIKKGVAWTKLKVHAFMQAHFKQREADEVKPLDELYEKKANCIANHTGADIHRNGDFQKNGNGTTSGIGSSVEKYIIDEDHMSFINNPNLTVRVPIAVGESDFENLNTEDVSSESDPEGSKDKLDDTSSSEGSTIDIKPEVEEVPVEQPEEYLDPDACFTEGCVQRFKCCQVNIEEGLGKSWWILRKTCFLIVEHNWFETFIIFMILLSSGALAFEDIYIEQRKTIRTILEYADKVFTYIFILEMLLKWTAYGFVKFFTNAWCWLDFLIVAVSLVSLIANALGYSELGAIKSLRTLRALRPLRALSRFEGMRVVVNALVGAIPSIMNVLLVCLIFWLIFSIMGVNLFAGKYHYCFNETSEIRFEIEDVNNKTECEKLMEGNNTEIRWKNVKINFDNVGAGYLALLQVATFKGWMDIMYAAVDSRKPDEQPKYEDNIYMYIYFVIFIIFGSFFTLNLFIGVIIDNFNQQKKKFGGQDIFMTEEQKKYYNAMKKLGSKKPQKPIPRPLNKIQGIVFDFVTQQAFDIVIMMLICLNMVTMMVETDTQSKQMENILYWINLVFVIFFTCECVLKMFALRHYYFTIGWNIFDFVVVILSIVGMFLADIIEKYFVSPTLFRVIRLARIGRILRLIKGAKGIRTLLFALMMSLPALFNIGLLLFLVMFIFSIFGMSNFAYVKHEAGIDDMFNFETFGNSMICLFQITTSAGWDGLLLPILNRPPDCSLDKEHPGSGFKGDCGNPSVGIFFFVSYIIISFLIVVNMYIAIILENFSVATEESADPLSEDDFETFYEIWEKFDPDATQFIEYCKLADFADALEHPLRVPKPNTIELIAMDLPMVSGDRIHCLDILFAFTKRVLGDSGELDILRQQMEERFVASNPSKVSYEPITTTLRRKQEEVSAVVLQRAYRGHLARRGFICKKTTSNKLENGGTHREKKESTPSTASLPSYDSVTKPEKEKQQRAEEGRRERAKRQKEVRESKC
Procedure: Functional characterization of exemplary compounds to modulate INaL expressed by the Nav1.6 voltage-gated sodium channel was accomplished using the PatchXpress™ high throughput electrophysiology platform (Molecular Devices, Sunnyvale, CA). HEK-293 cells expressing recombinant, human Nav1.6 (hNav1.6)were grown in DMEM/high-glucose Dulbecco's modified, 10% FBS, 2 mM sodium pyruvate, 10 mM HEPES and 400 μg/mL G418. Cells were grown to 50%-80% confluency prior to harvesting. […] The onboard liquid handling facility of the PatchXpress was used for dispensing cells and applying test compounds. Nav late currents were evoked by the application of 300 nM ATX-II. […] INaL amplitude and stability were determined by analyzing the mean current amplitude over the final 20 ms of the test pulse. […] Percent steady-state inhibition of INaL was calculated as: [(INaL_compound)/(INaL_control)]*100, where INaL_compound and INaL_control represent INaL recorded in the presence or absence of compound, respectively.

[3] = PK rat clearance experiment; conditions: male Sprague-Dawley rats, single intravenous bolus 0.5 mg/kg, plasma
Procedure: (§1) The IV dosing solution was prepared freshly on the dosing day. Test article (0.5 mg/kg) was prepared in a vehicle, for example, consisting of 5% DMSO/5% solutol/90% water. The concentrations of test article in all dosing solutions were determined by HPLC/UV. Three male Sprague-Dawley rats were used in this study. The animals were confirmed healthy before being assigned to the study. Each animal was given a unique identification number which was marked on the tail or the ear, and written on the cage card. All animals were fasted overnight before dosing and the food was returned at 4 hours post dosing. Water was provided to all animals ad libitum during the fasting period. Animals were weighed prior to dose administration on the day of dosing for calculating the actual dose volume. The body weights were in the range from 212 g to 223 g for males. All animals received test article by single intravenous bolus administration at 0.5 mg/kg. Approximately 0.2 mL blood was collected at each time point via jugular vein from each study animal. […] All blood samples were transferred into pre-labeled plastic micro centrifuge tubes and mixed with the pre-loaded anti-coagulant K2EDTA (5 μL, 0.5 M). Plasma samples were then prepared by centrifuging the blood samples. All plasma samples were then quickly frozen over dry ice and kept at −60° C. or lower until LC/MS/MS analysis. The concentrations of test article in plasma were determined by using a quantitative bioanalytical LC/MS/MS method. The lower limit of quantitation (LLOQ) for test article in plasma was 1 ng/mL, and the upper limit of quantitation (ULOQ) in plasma was 3000 ng/mL. The plasma concentration of test article in rats was subjected to a non compartmental pharmacokinetic analysis by using the Phoenix WinNonlin software (version 6.3, Pharsight, Mountain View, CA).
(§2) The linear/log trapezoidal rule was applied in obtaining the PK parameters.

[4] = rat, in vivo, iv, 0.5 mg/kg
Procedure: as §1, §2

[5] = pooled human liver microsomes, substrate Phenacetin, read-out: CYP1A2 IC50 mean

CYP1A2, sequence (P05177 whole entry): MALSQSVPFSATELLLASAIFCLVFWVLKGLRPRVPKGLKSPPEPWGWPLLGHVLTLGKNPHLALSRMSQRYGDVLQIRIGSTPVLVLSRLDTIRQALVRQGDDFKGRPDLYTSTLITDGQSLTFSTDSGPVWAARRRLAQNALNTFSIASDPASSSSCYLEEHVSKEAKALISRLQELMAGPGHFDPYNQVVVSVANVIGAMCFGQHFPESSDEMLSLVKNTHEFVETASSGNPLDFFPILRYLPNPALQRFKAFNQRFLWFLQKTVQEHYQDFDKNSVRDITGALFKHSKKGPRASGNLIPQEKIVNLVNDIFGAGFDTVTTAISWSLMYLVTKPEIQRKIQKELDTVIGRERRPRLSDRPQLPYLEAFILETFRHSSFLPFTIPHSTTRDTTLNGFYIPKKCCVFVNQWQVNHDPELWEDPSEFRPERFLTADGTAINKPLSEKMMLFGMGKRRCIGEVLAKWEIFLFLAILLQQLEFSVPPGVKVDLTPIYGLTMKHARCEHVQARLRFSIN

Structure (SMILES): FC(F)(F)Oc1ccc(-c2ccc3nnc(C4CC4(F)F)n3n2)cc1 (stereo not drawn) [Compound 46]
INaL v1.6 (1 μM, % Inhibition) [2]: C (inhibition of greater than 70%) | IC50 [1, 5]: 1000 to 15000 nM | Clearance [3]: 4.7 mL/min/kg | T1/2 [3]: 4.5 h

Structure (SMILES): FC(F)(F)Oc1ccc(-c2cn3c(C(F)(F)F)nnc3cn2)cc1 [Compound 56]
IC50 [1, 5]: < 1000 nM

Structure (SMILES): COCc1cc(OC(F)(F)F)ccc1-c1cn2c(C(F)(F)F)nnc2cn1 [Compound 66]
INaL v1.6 (1 μM, % Inhibition) [2]: C (inhibition of greater than 70%) | IC50 ([1]; microsomes): 1000 to 15000 nM

Structure (SMILES): Fc1cc(-c2cn3c(C(F)F)nnc3cn2)cnc1OCC(F)(F)F [Compound 68]
INaL v1.6 (1 μM, % Inhibition) [2]: B (inhibition of between about 30% to about 70%) | IC50 [1, 5]: > 30000 nM | Clearance [3]: 15.8 mL/min/kg | T1/2 [3]: 1.5 h

Structure (SMILES): Fc1cc(-c2cn3c(C(F)(F)F)nnc3cn2)cnc1OC1CC(F)(F)C1 [Compound 84]
INaL v1.6 (1 μM, % Inhibition) [2]: C (inhibition of greater than 70%) | IC50 [1, 5]: 1000 to 15000 nM | Clearance [3]: 21.9 mL/min/kg | T1/2 [3]: 2.1 h

Structure (SMILES): FC(F)(F)OCc1ccc(-c2ccc3nnc(C(F)(F)F)n3n2)cc1 [Compound 118]
IC50 ([1]; microsomes): < 1000 nM

Structure (SMILES): C[C@@H](Oc1ncc(-c2cn3c(C(F)F)nnc3cn2)cc1F)C(F)(F)F [Compound 134]
INaL v1.6 (1 μM, % Inhibition) [2]: C (inhibition of greater than 70%) | IC50 ([1]; microsomes): > 30000 nM | Clearance [4]: 10.9 mL/min/kg | T1/2 [4]: 2.6 h

Further lines, results first:

IC50 ([1]; microsomes): < 1000 nM
Structure (SMILES): FC(F)(F)c1ccc(-c2ccc3nnc(C(F)(F)F)n3n2)cc1 [Compound 1]

IC50 ([1]; microsomes): < 1000 nM
Structure (SMILES): FC(F)c1nnc2cnc(-c3ccc(OC(F)(F)F)cc3)cn12 [Compound 47]

IC50 ([1]; microsomes): < 1000 nM
Structure (SMILES): COc1cc(OC(F)(F)F)ccc1-c1cn2c(C(F)F)nnc2cn1 [Compound 48]

IC50 ([1]; microsomes): < 1000 nM
Structure (SMILES): FC(F)(F)c1ccc(-c2cn3c(C(F)(F)F)nnc3cn2)cc1 [Compound 62]

IC50 ([1]; microsomes): < 1000 nM
Structure (SMILES): COc1cc(OC(F)(F)F)ccc1-c1cn2c(C(F)(F)F)nnc2cn1 [Compound 70]

IC50 ([1]; microsomes): < 1000 nM
Structure (SMILES): Fc1cc(C(F)(F)F)ccc1-c1cn2c(C(F)(F)F)nnc2cn1 [Compound 76]

IC50 ([1]; microsomes): < 1000 nM
Structure (SMILES): Fc1cc(-c2cn3c(C(F)(F)F)nnc3cn2)ccc1OC(F)(F)F [Compound 79]

IC50 ([1]; microsomes): < 1000 nM
Structure (SMILES): COC(F)(F)c1nnc2cnc(-c3ccc(OC(F)(F)F)cc3)cn12 [Compound 97]

IC50 ([1]; microsomes): < 1000 nM
Structure (SMILES): Cc1cc(-c2ccc3nnc(C(F)(F)F)n3n2)ccc1C(F)(F)F [Compound 98]

IC50 ([1]; microsomes): < 1000 nM
Structure (SMILES): FC(F)Oc1ccc(-c2ccc3nnc(C(F)(F)F)n3n2)cc1 [Compound 116]
